For one data set, the target named is T1, PfDHFR C59R + S108N (Plasmodium falciparum, UniProt A7UD81, C59R/S108N).
T1 construct: made in house; host or cells: E. coli BL21 (DE3)pLysS
Nature of the data set: PfDHFR enzyme inhibition constants (Ki), double mutant C59R + S108N. Type of data set: biochemical.

Another data set deals with Staphylococcus aureus. Nature of the data set: Antibacterial activity, bacterial growth inhibition, S. aureus. The format is cell-based. Conditions: 20 hours incubation, 600 nm. As to the method:
(§1) The IC50-values was determined from the sigmoidal curve obtained by plotting the percentages of bacterial growth against drug concentrations. These compounds have selectivity against malaria parasites with no or less effect on bacteria. The antibacterial activities to S. aureus, and E. coli are as summerized in Table 4.

In data set [1] the test system is Plasmodium falciparum TM4/8.2 (wild type). Nature of the data set: In vitro antimalarial activity, [3H]-hypoxanthine incorporation, TM4/8.2. Type of data set: cell-based. Conditions: P. falciparum TM4/8.2, wild type. The procedure:
P. falciparum strains were used in this study. P. falciparum strains were maintained continuously in human erythrocytes at 37° C. under 3% CO2 in RPMI 1640 culture media supplemented with 25 mM HEPES, pH 7.4, 0.2% NaHCO3, 40 μg/mL gentamicin and 10% human serum.
In vitro antimalarial activity was determined by using [^3H]-hypoxanthine incorporation method. The drugs were initially dissolved in DMSO and diluted with the culture media. Aliquots (25 μL) of the drug of different concentrations were dispensed in 96-well plates and 200 μL of 1.5% cell suspension of parasitized erythrocytes containing 1-2% parasitemia were added. […] The mixtures were incubated in a 3% CO2 incubator at 37° C. After 24 h of incubation, 25 μL (0.25 μCi) of [^3H]-hypoxanthine were added to each well. The parasite cultures were further incubated under the same condition for 18-24 h. DNA of parasites was harvested onto glass filter paper. The filters were air-dried and 20 μL liquid scintillation fluid was added. The radioactivity on the filters was then measured using a microplate scintillation counter. […] Examples of the invented compounds in this series with active antimalarial activity against wild type and in particular against parasites carrying single, double, triple, and quadruple mutant enzymes are as summarized in Table 2.

In data set [2] the target is T2, PfDHFR N51I + C59R + S108N + I164L (Plasmodium falciparum, UniProt A7UD81, C59R/I164L/N51I/S108N).
T2 construct: made in house; host or cells: E. coli BL21 (DE3)pLysS
T2 sequence (A7UD81 whole entry N51I/C59R/S108N/I164L): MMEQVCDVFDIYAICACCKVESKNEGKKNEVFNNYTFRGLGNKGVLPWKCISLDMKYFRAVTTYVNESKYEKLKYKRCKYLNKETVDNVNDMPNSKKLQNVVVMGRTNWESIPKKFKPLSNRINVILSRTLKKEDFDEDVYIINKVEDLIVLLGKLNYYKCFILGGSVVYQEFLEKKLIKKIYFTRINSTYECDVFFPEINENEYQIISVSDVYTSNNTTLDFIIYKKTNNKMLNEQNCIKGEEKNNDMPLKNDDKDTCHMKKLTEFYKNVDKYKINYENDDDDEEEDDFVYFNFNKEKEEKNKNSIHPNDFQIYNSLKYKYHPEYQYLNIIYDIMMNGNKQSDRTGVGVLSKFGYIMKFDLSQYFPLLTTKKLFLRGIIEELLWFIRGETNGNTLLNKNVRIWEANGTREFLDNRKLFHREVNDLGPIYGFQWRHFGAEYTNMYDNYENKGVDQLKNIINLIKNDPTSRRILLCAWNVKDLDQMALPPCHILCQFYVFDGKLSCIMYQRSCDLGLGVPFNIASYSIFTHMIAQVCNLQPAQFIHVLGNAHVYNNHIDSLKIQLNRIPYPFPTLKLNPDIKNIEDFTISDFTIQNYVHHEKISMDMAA
Nature of the data set: PfDHFR enzyme inhibition constants (Ki), quadruple mutant N51I + C59R + S108N + I164L. The format is biochemical.

Data set [3] can be described thus: Cytotoxicity to mammalian cells, BC. Conditions: human, BC cells (human breast cancer). The format is cell-based. The procedure:
(§2) Cytotoxicity tests of the invented compounds against African green monkey kidney fibroblast (Vero cells), Human epidermoid carcinoma (KB) cells, Human breast cancer (BC) cells were performed according to the protocol described by Skehan et al (1990). These compounds have selectivity against malaria parasites with no or less effect on mammalian cell lines.

Data set [4] deals with PfDHFR C59R + S108N + I164L (Plasmodium falciparum, UniProt A7UD81, C59R/I164L/S108N). Nature of the data set: biochemical.
Sequence of PfDHFR C59R + S108N + I164L (A7UD81 whole entry C59R/S108N/I164L): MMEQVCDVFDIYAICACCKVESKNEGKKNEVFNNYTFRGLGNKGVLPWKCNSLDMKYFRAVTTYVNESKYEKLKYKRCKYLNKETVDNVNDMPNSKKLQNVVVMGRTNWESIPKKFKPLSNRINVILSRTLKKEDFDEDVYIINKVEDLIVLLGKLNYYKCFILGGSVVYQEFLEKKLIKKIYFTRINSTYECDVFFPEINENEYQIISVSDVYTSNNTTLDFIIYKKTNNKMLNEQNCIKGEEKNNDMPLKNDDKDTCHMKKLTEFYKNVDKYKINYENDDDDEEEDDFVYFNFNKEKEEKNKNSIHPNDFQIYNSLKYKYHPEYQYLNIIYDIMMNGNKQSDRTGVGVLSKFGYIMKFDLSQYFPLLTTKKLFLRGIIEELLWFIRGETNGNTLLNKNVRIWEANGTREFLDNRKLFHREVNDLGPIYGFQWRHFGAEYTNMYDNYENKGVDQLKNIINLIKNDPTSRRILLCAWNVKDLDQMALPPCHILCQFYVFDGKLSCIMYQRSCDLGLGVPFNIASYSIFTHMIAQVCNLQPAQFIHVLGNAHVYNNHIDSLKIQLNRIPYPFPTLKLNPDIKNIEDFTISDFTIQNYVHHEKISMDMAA
A short description of data set [5]: Cytotoxicity to mammalian cells, KB. The format is cell-based. Conditions: human, KB cells (human epidermoid carcinoma). As to the method:
as §2

Data set [6] deals with dihydrofolate reductase of Plasmodium falciparum, wild type (Plasmodium falciparum, UniProt A7UD81). Nature of the data set: PfDHFR enzyme inhibition constants (Ki), wild type. Type of data set: biochemical. Conditions: 25° C., 340 nm.
Sequence of dihydrofolate reductase of Plasmodium falciparum, wild type (A7UD81 entry or part of it): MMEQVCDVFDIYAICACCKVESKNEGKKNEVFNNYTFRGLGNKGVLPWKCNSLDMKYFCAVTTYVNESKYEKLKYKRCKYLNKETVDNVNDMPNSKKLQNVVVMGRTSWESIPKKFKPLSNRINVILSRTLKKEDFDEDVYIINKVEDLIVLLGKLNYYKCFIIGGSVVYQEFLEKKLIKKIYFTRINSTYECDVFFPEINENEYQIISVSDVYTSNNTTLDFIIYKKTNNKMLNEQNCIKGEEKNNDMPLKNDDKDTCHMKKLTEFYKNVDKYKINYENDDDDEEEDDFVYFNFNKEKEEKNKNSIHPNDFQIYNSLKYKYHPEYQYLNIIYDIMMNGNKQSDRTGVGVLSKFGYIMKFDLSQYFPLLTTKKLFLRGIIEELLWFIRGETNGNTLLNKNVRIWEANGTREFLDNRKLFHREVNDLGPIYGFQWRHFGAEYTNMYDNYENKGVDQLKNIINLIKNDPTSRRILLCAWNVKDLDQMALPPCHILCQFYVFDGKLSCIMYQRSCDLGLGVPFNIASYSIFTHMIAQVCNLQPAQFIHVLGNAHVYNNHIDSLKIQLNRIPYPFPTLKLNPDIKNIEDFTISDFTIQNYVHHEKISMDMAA
The target in data set [7] is PfDHFR N51I + C59R + S108N (Plasmodium falciparum, UniProt A7UD81, C59R/N51I/S108N). Nature of the data set: biochemical.
Sequence of PfDHFR N51I + C59R + S108N (A7UD81 whole entry N51I/C59R/S108N): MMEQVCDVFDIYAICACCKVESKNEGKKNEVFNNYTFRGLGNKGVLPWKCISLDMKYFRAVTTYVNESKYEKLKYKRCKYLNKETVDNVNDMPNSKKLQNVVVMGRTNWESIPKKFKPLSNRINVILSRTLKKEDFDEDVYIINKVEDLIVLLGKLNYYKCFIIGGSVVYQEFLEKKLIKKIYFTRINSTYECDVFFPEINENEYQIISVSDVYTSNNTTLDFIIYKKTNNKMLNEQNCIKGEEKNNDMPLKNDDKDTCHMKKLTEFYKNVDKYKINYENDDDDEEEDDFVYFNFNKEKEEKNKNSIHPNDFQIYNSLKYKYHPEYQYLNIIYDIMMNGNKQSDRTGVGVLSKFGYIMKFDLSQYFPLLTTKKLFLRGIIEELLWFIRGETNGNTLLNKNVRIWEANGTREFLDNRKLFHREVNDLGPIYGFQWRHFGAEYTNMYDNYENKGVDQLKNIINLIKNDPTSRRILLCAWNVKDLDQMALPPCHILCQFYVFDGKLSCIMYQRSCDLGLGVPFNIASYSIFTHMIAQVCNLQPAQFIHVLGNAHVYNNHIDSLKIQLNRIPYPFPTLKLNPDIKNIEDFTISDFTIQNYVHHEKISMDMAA
Data set [8] can be described thus: Cytotoxicity to mammalian cells, Vero. The format is cell-based. Conditions: African green monkey, Vero cells (African green monkey kidney epithelial cells).
The next data set addresses T3, PfDHFR S108N (Plasmodium falciparum, UniProt A7UD81, S108N).
T3 construct: made in house; host or cells: E. coli BL21 (DE3)pLysS
Nature of the data set: PfDHFR enzyme inhibition constants (Ki), single mutant S108N. Type of data set: biochemical.

A further data set has as its system E. coli. Nature of the data set: Antibacterial activity, bacterial growth inhibition, E. coli. Type of data set: cell-based. Conditions: Escherichia coli, 20 hours incubation, 600 nm. As to the method: as §1

Structures are written as SMILES. A value given as a limit tells only on which side of the number the result lay.

A word on the Ki: it is a dissociation constant, usually derived from enzyme kinetics or from competition with a known ligand. The IC50 is the concentration that gives 50% inhibition.

T1 sequence (A7UD81 whole entry C59R/S108N): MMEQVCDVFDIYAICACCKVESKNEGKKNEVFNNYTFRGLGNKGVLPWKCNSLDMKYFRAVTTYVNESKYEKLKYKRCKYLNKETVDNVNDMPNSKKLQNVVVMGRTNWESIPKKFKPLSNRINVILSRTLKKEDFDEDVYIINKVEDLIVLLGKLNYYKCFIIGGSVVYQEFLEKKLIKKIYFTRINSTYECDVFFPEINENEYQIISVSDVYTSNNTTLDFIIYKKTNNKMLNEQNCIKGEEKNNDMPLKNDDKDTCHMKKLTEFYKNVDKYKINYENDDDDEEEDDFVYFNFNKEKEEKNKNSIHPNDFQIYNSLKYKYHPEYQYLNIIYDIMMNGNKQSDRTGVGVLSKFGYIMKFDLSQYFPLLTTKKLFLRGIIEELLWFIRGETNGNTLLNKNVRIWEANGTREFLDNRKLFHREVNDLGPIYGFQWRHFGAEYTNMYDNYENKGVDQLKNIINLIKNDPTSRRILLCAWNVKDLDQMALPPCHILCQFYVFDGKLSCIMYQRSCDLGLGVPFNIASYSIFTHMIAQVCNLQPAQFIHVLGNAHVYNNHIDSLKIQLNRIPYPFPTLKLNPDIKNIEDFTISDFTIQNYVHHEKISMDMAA
T3 sequence (A7UD81 whole entry S108N): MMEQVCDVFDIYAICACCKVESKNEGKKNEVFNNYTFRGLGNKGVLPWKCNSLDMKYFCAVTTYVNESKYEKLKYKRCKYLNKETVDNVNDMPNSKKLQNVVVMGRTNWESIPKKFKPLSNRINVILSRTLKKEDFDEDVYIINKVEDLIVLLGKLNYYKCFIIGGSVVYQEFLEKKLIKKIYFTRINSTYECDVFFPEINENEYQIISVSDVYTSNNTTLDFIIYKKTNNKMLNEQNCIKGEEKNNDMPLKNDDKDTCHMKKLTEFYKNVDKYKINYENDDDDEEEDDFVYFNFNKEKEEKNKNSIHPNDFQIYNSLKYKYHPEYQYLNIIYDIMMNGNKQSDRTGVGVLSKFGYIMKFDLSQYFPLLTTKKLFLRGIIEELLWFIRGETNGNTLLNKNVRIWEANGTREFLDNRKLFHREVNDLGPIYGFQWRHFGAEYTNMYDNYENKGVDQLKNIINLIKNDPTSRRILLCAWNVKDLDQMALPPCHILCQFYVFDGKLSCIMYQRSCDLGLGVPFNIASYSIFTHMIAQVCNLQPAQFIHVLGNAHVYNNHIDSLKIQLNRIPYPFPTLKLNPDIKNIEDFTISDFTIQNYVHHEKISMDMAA

Turning to `COC(=O)CCCc1nc(N)nc(N)c1-c1ccccc1` [Example 3, 2,4-diamino-6-(3-methoxycarbonylpropyl)-5-phenylpyrimidine], the Ki at PfDHFR C59R + S108N is 5.5 ± 0.5 nM; in data set [2] it was 24 ± 2 nM; in data set [4], 15 ± 3 nM; in data set [6], 0.6 nM; in data set [7] it was 3.3 ± 0.6 nM; at PfDHFR S108N, 1.8 ± 0.2 nM. The IC50 in the data set with Staphylococcus aureus was more than 50000 nM; in data set [1] it was 390 ± 60 nM; in data set [3], 500000 nM; in data set [5] it was 71000 nM; in data set [8], 20000 nM; in the data set on E. coli, more than 50000 nM.

As for `Nc1nc(N)c(-c2cccc(Cl)c2)c(CCOCCCOc2ccccc2)n1` [Example 7, 2,4-diamino-5-(3-chlorophenyl)-6-[2-(3-phenoxypropyloxy)ethyl]pyrimidine], the Ki at PfDHFR C59R + S108N is 1.9 ± 0.4 nM; in data set [2] it was 1.7 ± 0.2 nM; in data set [4], 1.3 ± 0.4 nM; in data set [6] it was 0.4 ± 0.2 nM; in data set [7], 0.7 ± 0.1 nM; at PfDHFR S108N, 1.8 ± 0.3 nM. Further, the IC50 with Staphylococcus aureus is more than 50000 nM; in data set [1], 350 ± 80 nM; in data set [3], 4900 nM; in [5] it was 6400 nM; in data set [8], 15000 nM; in the data set on E. coli, more than 50000 nM.

`COC(=O)CCCc1nc(N)nc(N)c1-c1cccc(Cl)c1` [Example 6, 2,4-diamino-5-(3-chlorophenyl)-6-(3-methoxycarbonylpropyl)pyrimidine]: the Ki on PfDHFR C59R + S108N was 2.8 ± 0.2 nM; in data set [2], 2.7 ± 1.2 nM; in data set [4], 1.8 ± 0.4 nM; in data set [6], 0.5 nM; in data set [7], 0.8 ± 0.2 nM; on PfDHFR S108N, 1.7 ± 0.1 nM. Moreover, the IC50 was more than 50000 nM with Staphylococcus aureus; 790 ± 100 nM in data set [1]; 22800 nM in [3]; 9300 nM in data set [5]; 20000 nM in data set [8]; more than 50000 nM in the data set on E. coli.

As to `CCCCCCc1nc(N)nc(N)c1-c1ccccc1` [Example 1, 2,4-diamino-6-(n-hexyl)-5-phenylpyrimidine], the Ki on PfDHFR C59R + S108N was 0.7 ± 0.3 nM; in [2], 1.4 ± 0.5 nM; in data set [4] it was 0.7 ± 0.2 nM; in data set [6], 0.3 ± 0.1 nM; in data set [7], 0.4 ± 0.02 nM; at PfDHFR S108N, 1.2 ± 0.3 nM. For the same compound, the half-inhibitory concentration (IC50) was more than 10000 nM in the data set on Staphylococcus aureus; 60 ± 20 nM in [1]; 268000 nM in data set [3]; 113000 nM in data set [5]; 55000 nM in data set [8]; more than 10000 nM with E. coli.

On to `Nc1nc(N)c(-c2cccc(Cl)c2)c(CCCc2ccccc2)n1` [Example 4, 2,4-diamino-5-(3-chlorophenyl)-6-(3-phenylpropyl)pyrimidine], for which the Ki at PfDHFR C59R + S108N was found to be 4.2 ± 0.2 nM; in data set [2], 2 ± 0.8 nM; in data set [4], 2.2 ± 0.3 nM; in data set [6], 1.2 ± 0.2 nM; in [7] it was 2 ± 0.2 nM; on PfDHFR S108N, 3 ± 0.6 nM. The half-maximal inhibitory concentration (IC50) is more than 50000 nM in the data set on Staphylococcus aureus; 670 ± 60 nM in data set [1]; 1600 nM in data set [3]; 1600 nM in data set [5]; 2100 nM in [8]; more than 50000 nM in the data set on E. coli.

Regarding `CCc1nc(N)nc(N)c1-c1ccc(Cl)cc1` [Pyr, pyrimethamine, reference compound], the IC50 in [1] was 80 ± 10 nM; in [3], 40000 nM; in data set [5], 109000 nM.

Turning to `COc1cc(Cc2cnc(N)nc2N)cc(OC)c1OC` [Trimethoprim, reference compound], the IC50 with Staphylococcus aureus amounted to 6000 nM; in the data set on E. coli it was 2300 nM.

Consider `Nc1nc(N)c(-c2ccccc2)c(CCCc2ccccc2)n1` [Example 2, 2,4-diamino-5-phenyl-6-(3-phenylpropyl)pyrimidine], for which the Ki on PfDHFR C59R + S108N amounted to 2.4 ± 0.1 nM; in [2] it was 4.7 ± 0.9 nM; in data set [4] it was 1.9 ± 0.1 nM; in data set [6] it was 0.5 nM; in data set [7], 1.1 ± 0.1 nM; on PfDHFR S108N, 0.9 ± 0.2 nM. Besides, the IC50 was more than 50000 nM with Staphylococcus aureus; 210 ± 60 nM in data set [1]; 250000 nM in [3]; 150000 nM in data set [5]; more than 50000 nM in [8]; more than 50000 nM in the data set on E. coli.

With `COc1ccc(CCCc2nc(N)nc(N)c2-c2cccc(Cl)c2)cc1` [Example 5, 2,4-diamino-5-(3-chlorophenyl)-6-[3-(4-methoxyphenyl)propyl]pyrimidine], the Ki on PfDHFR C59R + S108N was 6 ± 0.6 nM; in data set [2] it was 2 ± 0.4 nM; in [4], 2.9 ± 0.3 nM; in [6], 2.2 ± 0.6 nM; in data set [7] it was 1.3 ± 0.1 nM; at PfDHFR S108N, 4 ± 0.2 nM. In addition, the IC50 in the data set on Staphylococcus aureus was 38000 nM; in [1], 410 ± 50 nM; in data set [3], 3000 nM; in [5], 15000 nM; in data set [8] it was 3000 nM; in the data set on E. coli, more than 50000 nM.

The values above are taken from patent US7371758B2, “Antimalarial pyrimidine derivatives and methods of making and using them” (National Science & Technology Development Agency, priority 2003, dated 2008).
